Laboratory results reported in PMC8321398, “The discovery of a novel series of compounds with single-dose efficacy against juvenile and adult Schistosoma species” (PLoS Neglected Tropical Diseases, 2021).
≈ marks a conversion by molar mass, not a printed value. Where “and” joins values, the source holds several entries; their conditions need not be identical. Equal entries are not always repeated. Where two headings read alike, the source gives them in different places.

What was measured:
Mouse pharmacokinetics = assay type: in vivo; settings: for Plasma conc @ 24 h after oral dose / bioavailability: mixture of 5 compounds; for AUC(0-inf) / Vd / bioavailability / half-life / concentration at 24 h: male, Swiss albino, plasma; for Vd: read-out: Vss; for bioavailability: 2.5 mg/kg oral, calculated values > 100% shown as 100; for scaled plasma level, fold above the calculated whole blood IC50: 24 h; for half-life: iv; for concentration at 24 h: oral
Juvenile S. mansoni = assay: In vitro juvenile (3 week old) S. mansoni worm assay; assay type: cell-based; settings: Schistosoma mansoni; for EC50: Table 2, in vitro, 120 h incubation
Text: The Puerto Rican strain of S. mansoni was maintained in Biomphalaria glabrata and CD1 mice. Oncomelania hupensis (hupensis) infected with S. japonicum (Chinese strain) and Bulinus truncatus (truncatus) infected with Egyptian strain S. haematobium were obtained from BEI Resources, NIAID, NIH. Infection of mice for worm recovery was as previously described except that, whereas cercariae of S. mansoni and S. haematobium were obtained by shedding from infected snails under lights, cercariae of S. japonicum were obtained by gently crushing the snails. Furthermore, adult S. haematobium were recovered after 12 weeks following mouse infection.
In vitro efficacy was carried out as previously described. In brief, worms were recovered from infected mice by portal perfusion 3 weeks (for juveniles) or 6 weeks (for adults) post-infection using warm perfusion medium (Dulbecco’s Modified Eagle’s Medium [DMEM], 2mM L-glutamine, 100 Units/ml penicillin, 100μg/ml streptomycin, 20mM Hepes, 10 Units/ml heparin [Sigma, UK]). Worms were washed free of red blood cells using the perfusion medium, and finally suspended in complete medium (cDMEM: DMEM, 2mM L-glutamine, 100 Units/ml penicillin, 100μg/ml streptomycin, 10% FCS). The juvenile assays were carried out in 96-well plates, each well containing 6–8 worms in 200 μL cDMEM. The adult worm assay was in 24-well plates, each well containing 3 worm pairs in 1mL cDMEM. Both the juvenile and adult worm cultures were kept at 37° C, in an atmosphere of 5% CO2. Drug effects were determined on day 5 following drug treatment by assessing the viability of individual worms as described in [14].

[1] = Metabolic stability in human hepatocytes; assay type: in vitro ADME; settings: hepatocytes (suspension); for remaining at 1.5 h, 1 µM: pH 7.4, 90 min incubation, read-out: Human hepatocyte % remaining at 90 min; for remaining at 0.5 h, 1 µM: pH 7.4, 30 min incubation, read-out: Human hepatocyte % remaining at 30 min
Method: 100 μM compound stock solution was prepared from 5 μL of 4 mM stock in DMSO + 195 μL MeCN. Working solution (2 μM compound) was prepared using 10 μL of 100 μM stock + 490 μL buffer pH 7.4 (KHB supplemented with CaCl2, NaHCO3, HEPES, fructose, glycine; pH 7.4).
Working solution (25 μL, 2 μM) was added in duplicate to wells in a 0.5 mL per well, 96 well plate which was preincubated to reach 37°C. Hepatocyte suspension (25 μL) was added to each plate, and the plate incubated (37°C, 95% relative humidity with 5% CO2 supply) under gentle mixing (Thermomixer @300 rpm). After designated time periods, ice-cold MeCN (250 μL) was added with a suitable standard. For T = 0 min, ice-cold MeCN (250 μL) with suitable standard was added to the working solution (2 μM) and hepatocyte suspension (25 μL) added. The plates for each time point were shaken, sonicated for 5 mins and kept at 4°C until the final plate was processed. The plates were centrifuged at 4,000 rpm for 20 min, supernatant (110 μL) was mixed with water (110 μL) and the samples analysed using LC-MS/MS.

[2] = Human dose prediction with the PK Tool; settings: for human single oral dose prediction: PK Tool, predicted plasma conc at 24 h 7 fold above calculated adult worm blood potency
Text: • We assume that the plasma concentration achieved in mouse sufficient to kill worms is the same as the plasma concentration we need to achieve in humans to see the same effect. A component element is an assumption that the mechanism of S. mansoni worm reduction in mouse and human are the same. • We assume that allometric scaling can be used to estimate human clearance based on mouse clearance. One factor that would make this assumption unsafe is if the clearance mechanisms and rates for our series in mouse and human were different. Fortunately, in vivo clearance correlates well with metabolic stability calculated from in vitro mouse hepatocyte measurements (Fig 7A). In vitro stability estimates in mouse and human hepatocytes are also fairly well correlated (Fig 7B).
Estimates of dose prediction in human were made using the PK Tool. A simple estimate of an effective human dose for LSHTM-3520 can be made by making the assumption that a plasma concentration of 2,000 ng/mL 24 h after oral administration (the same as that achieved in Fig 6B) would give sufficient clinical efficacy. […] To design compounds with a lower predicted human dose we pursued two strategies, one to improve potency by optimisation of the core and substituents, the other to decrease clearance through blocking positions we thought likely to be vulnerable to metabolic enzymes and/or conformational restriction.
Assuming linear kinetics the plasma levels scaled from the low-dose oral PK experiment (2.5 mg/kg) for LSHTM-3520 (8 ng/mL) after 24 h would be 160 ng/mL from […] and 640 ng/mL at […].

[3] = Plasma protein binding in mouse plasma at 10 uM, equilibrium dialysis; assay type: in vitro ADME; settings: for recovery at 6 h, 10 µM: mouse, mouse plasma, pH 7.4
Method: (§1) Each experiment was performed in duplicate for the compound being tested. A working solution of compound was prepared from 10 μL of 10 mM solution in DMSO + 190 μL 40:60 MeCN:Water. A Total solution was prepared from 12 μL of working solution + 588 μL plasma (compound conc: 10 μM, DMSO: 0.1%, ACN:0.76%). In an equilibrium dialysis chamber, Total solution (200 μL) was added to the plasma chamber and PBS pH 7.4 (350 μL) was added to the buffer chamber. The chamber was then incubated at 37°C for 6 h with constant shaking at 400 rpm (Thermomixer comfort, Eppendorf). Aliquots were removed from both plasma and buffer chambers and the following test samples prepared: Blank: blank Plasma (20 μL) + blank buffer (60 μL), Buffer: blank plasma (20 μL) + test buffer (60 μL), Plasma: test plasma (20 μL) + blank buffer (60 μL), Total: total sample (20 μL) + blank buffer (60 μL). Ice-cold acetonitrile (160 μL), containing a suitable standard was added to all samples, they were shaken vigorously and centrifuged at 4,000 rpm for 20 min at 15°C. Supernatant (110 μL) from each sample was diluted with water (110 μL) and the sample analysed by LC-MS/MS.
(§2) % Free = 100 × (AREA in buffer × dilution factor)/(AREA in Plasma × dilution factor)
(§3) % Recovery = 100 ×[(Avg AREA in buffer × dilution factor) + (Avg AREA in Plasma × dilution factor)] / (Avg AREA in Total × dilution factor)

[4] = Plasma protein binding in human plasma at 10 uM, equilibrium dialysis; assay type: in vitro ADME; settings: for recovery at 6 h, 10 µM: human, human plasma, pH 7.4
Method: as §1, §2, §3

Kinetic solubility = assay type: physicochemical
Text: Table 4 in vitro, physicochemical and in vivo properties of compounds pictured in Fig 10. | column: Measured physicochemical properties / Kinetic solubility, pH 7.4 (uM); Measured physicochemical properties / Kinetic solubility, FaSSIF (uM); Measured physicochemical properties / Kinetic solubility, FeSSIF (uM)

[5] = 0.5 mg/kg iv, in a mixture of 5 compounds
[6] = FaSSIF, pH 6.5, read-out: Kinetic solubility, FaSSIF
[7] = FeSSIF, pH 5, read-out: Kinetic solubility, FeSSIF
[8] = pH 7.4, read-out: Kinetic solubility, pH 7.4
[9] = 0.5 mg/kg, 0.5 mg/kg iv, in a mixture of 5 compounds, sampled over 24 h
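Throughout, for Clobs: three mice per experiment, dosed in 10% DMSO with 50 mM Na2HPO4 buffer plus Tween-80, plasma levels quantified by LC-MS against a calibration line prepared in blank matrix.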
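Throughout, for F: three mice per experiment, dosed in 10% DMSO with 50 mM Na2HPO4 buffer plus Tween-80, plasma levels quantified by LC-MS against a calibration line prepared in blank matrix.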
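Throughout, for Plasma conc @ 24 h after oral dose: three mice per experiment, dosed in 10% DMSO with 50 mM Na2HPO4 buffer plus Tween-80, plasma levels quantified by LC-MS against a calibration line prepared in blank matrix.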
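Throughout, for Vss: three mice per experiment, dosed in 10% DMSO with 50 mM Na2HPO4 buffer plus Tween-80, plasma levels quantified by LC-MS against a calibration line prepared in blank matrix.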

Row | Clobs (Mouse pharmacokinetics; [5]) | AUC(0-inf) (Mouse pharmacokinetics; [5]) | Vd (Mouse pharmacokinetics; [5]) | bioavailability (Mouse pharmacokinetics) | EC50 (Juvenile S. mansoni) | remaining at 1.5 h, 1 µM [1] | human single oral dose prediction [2] | Mouse plasma protein %binding [3] | recovery at 6 h, 10 µM [3] | Human plasma protein %binding [4] | recovery at 6 h, 10 µM [4] | solubility kinetic at 24 h (Kinetic solubility; [6]) | solubility kinetic at 24 h (Kinetic solubility; [7]) | solubility kinetic at 24 h (Kinetic solubility; [8]) | half-life (Mouse pharmacokinetics; [9]) | remaining at 0.5 h, 1 µM [1] | SMILES | other results
1 | 2.17 mL/min/kg | 5500 ng·h/mL | 8.7 L/kg | 83% | 48 nM | 105% | 20 mg/kg | 99.9915% | 92.1% | 99.9895% | 97.4% | 196 µM (≈ 94.7 µg/mL) | 197 µM (≈ 95.2 µg/mL) | 0.854 µM (≈ 0.413 µg/mL) | – | – | Fc1ccc(-c2cn3c(-c4ccc5[nH]ncc5c4F)c(C(F)(F)F)nc3cn2)cc1C(F)(F)F [LSHTM-3642, 3-(4-fluoro-1H-indazol-5-yl)-6-(4-fluoro-3-(trifluoromethyl)phenyl)-2-(trifluoromethyl)imidazo[1,2-a]pyrazine] | Plasma conc @ 24 h after oral dose (Mouse pharmacokinetics): 227 ng/mL
2 | 4.33 mL/min/kg | 1900 ng·h/mL | 3.4 L/kg | 60% | 33.2 nM | 98% | 6 mg/kg | 99.9858% | 94.5% | 99.9973% | 92.4% | – | – | 0.834 µM (≈ 0.381 µg/mL) | 10.5 h | 99% | CC(C)c1nc2cnc(-c3ccc(F)c(C(F)(F)F)c3)cn2c1-c1ccc2[nH]ncc2c1F [LSHTM-3604] | scaled plasma level, fold above the calculated whole blood IC50 (Mouse pharmacokinetics; efficacy dose (dose not given)): 9.4 fold; concentration at 24 h (Mouse pharmacokinetics; plasma level after 24 h scaled from […] dose, scaled to the efficacy dose (dose not given), read-out: plasma level after 24 h scaled from 2.5 mg/kg dose): 1430 ng/mL; IC50 (Juvenile S. mansoni; 10 fold the in vitro value (assay run at 10% of whole blood protein), read-out: calculated whole blood IC50): 0.152 µg/mL (≈ 0.332 µM); solubility kinetic (Kinetic solubility; FaSSIF, read-out: Kinetic solubility, FaSSIF): 200 µM (≈ 91.5 µg/mL); solubility kinetic (Kinetic solubility; FeSSIF, read-out: Kinetic solubility, FeSSIF): 200 µM (≈ 91.5 µg/mL)
3 | 3.5 mL/min/kg | 2400 ng·h/mL | 6.4 L/kg | 100% | 10.7 nM | 105% | 3.5 mg/kg | 100% | 96.9% | 100% | 85.8% | 199 µM (≈ 106 µg/mL) | 200 µM (≈ 107 µg/mL) | 0.264 µM (≈ 0.141 µg/mL) | 23.4 h | – | Fc1ccc(-c2cn3c(-c4ccc5[nH]ncc5c4F)c(C(F)(F)F)nc3cn2)cc1C(F)(F)C(F)(F)F [LSHTM-3645] | –
4 | 15.7 mL/min/kg | 500 ng·h/mL | 3.9 L/kg | 100% | 4.1 nM | 75% | 1 mg/kg | 99.997% | 76.1% | 99.998% | 62.7% | 33.9 µM (≈ 14.6 µg/mL) | 43.8 µM (≈ 18.8 µg/mL) | 0.885 µM (≈ 0.38 µg/mL) | 6 h | – | CC(C)c1cc(-c2cn3c(-c4ccc5[nH]ncc5c4F)c(C4CC4)nc3cn2)ccc1F [LSHTM-3686] | half life (Mouse pharmacokinetics; 0.5 mg/kg iv, in a mixture of 5 compounds, sampled over 24 h, 0.5 mg/kg): 6.2 h
5 | – | 500 ng·h/mL | 7.1 L/kg | 50% | 27 nM | – | 25 mg/kg | 99.97% | 91.5% | 99.9895% | 97.1% | – | – | 12.7 µM (≈ 5.73 µg/mL) | 7 h | 52% | CC(C)c1nc2cnc(-c3ccc(F)c(C(F)(F)F)c3)cn2c1-c1c(F)cc(O)cc1F [LSHTM-3520] | Clobs (Mouse pharmacokinetics; 0.5 mg/kg iv, in a mixture of 5 compounds, 0.5 mg/kg): 18.3 mL/min/kg and 18 mL/min/kg; scaled plasma level, fold above the calculated whole blood IC50 (Mouse pharmacokinetics; 50 mg/mL (so in the source)): 1.3 fold; scaled plasma level, fold above the calculated whole blood IC50 (Mouse pharmacokinetics; 200 mg/mL (so in the source)): 5.3 fold; Plasma conc @ 24 h after oral dose (Mouse pharmacokinetics; […]): 8.1 ng/mL; concentration at 24 h (Mouse pharmacokinetics; 50 mg/mL, scaled from […] to 50 mg/mL (so in the source), linear kinetics assumed, read-out: plasma level after 24 h scaled from the low-dose oral PK experiment): 160 ng/mL; concentration at 24 h (Mouse pharmacokinetics; 200 mg/mL, scaled from […] to 200 mg/mL (so in the source), linear kinetics assumed, read-out: plasma level after 24 h scaled from the low-dose oral PK experiment): 640 ng/mL; predicted single human oral dose (simple estimate) ([2]; target 2,000 ng/mL at 24 h, allometric scaling from mouse, exponent 0.75): 48 mg/kg
6 | 1.5 mL/min/kg | 6200 ng·h/mL | 4 L/kg | 100% | 21 nM | 98% | 2.5 mg/kg | 99.9195% | 80.8% | 100% | 97.8% | 200 µM (≈ 103 µg/mL) | 196 µM (≈ 101 µg/mL) | 0.704 µM (≈ 0.363 µg/mL) | 37.1 h | – | Fc1c(-c2c(C(F)(F)F)nc3cnc(-c4cccc(C(F)(F)C(F)(F)F)c4)cn23)ccc2[nH]ncc12 [LSHTM-3608] | –
